In PubChem BioAssay AID330 (DTP/NCI, 2004):
Several values for one entry are separate records, joined by “and”; a condition that tells them apart may be missing. Equal entries are not always repeated. Toxic doses and inconclusive results are not listed.

Test system: P388 leukemia ip, CD2F1 mice, survival T/C
Assay: NCI In Vivo Anticancer Drug Screen. Data for tumor model P388 Leukemia (intraperitoneal) in CD2F1 (CDF1) mice
Conditions: endpoint: median survival time, higher = longer survival
Method in brief: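 Mice carrying the transplanted tumor received test compound or vehicle. Survival was recorded in each group, and the value is the treated-group measurement divided by that of the vehicle-treated control group.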

[1] = dose: 1.56 mg/kg/injection, schedule: Q01DX009 (ip), vehicle: saline
[2] = dose: 3.12 mg/kg/injection, schedule: Q01DX009 (ip), vehicle: saline
[3] = dose: 6.25 mg/kg/injection, schedule: Q01DX009 (ip), vehicle: saline
[4] = dose: 25.0 mg/kg/injection, schedule: Q01DX009 (ip), vehicle: saline
[5] = dose: 50.0 mg/kg/injection, schedule: Q01DX009 (ip), vehicle: saline
[6] = dose: 100.0 mg/kg/injection, schedule: Q01DX009 (ip), vehicle: saline
[7] = dose: 200.0 mg/kg/injection, schedule: Q01DX009 (ip), vehicle: saline
[8] = dose: 50.0 mg/kg/injection, schedule: Q01DX005 (ip), vehicle: saline with Tween-80
[9] = dose: 100.0 mg/kg/injection, schedule: Q01DX005 (ip), vehicle: saline with Tween-80
[10] = dose: 200.0 mg/kg/injection, schedule: Q01DX005 (ip), vehicle: saline with Tween-80
[11] = dose: 50.0 mg/kg/injection, schedule: Q01DX005 (ip), vehicle: saline
[12] = dose: 100.0 mg/kg/injection, schedule: Q01DX005 (ip), vehicle: saline
[13] = dose: 200.0 mg/kg/injection, schedule: Q01DX005 (ip), vehicle: saline
[14] = dose: 50.0 mg/kg/injection, schedule: Q01DX009 (ip), vehicle: Klucel (hydroxypropylcellulose) (HPC)
[15] = dose: 100.0 mg/kg/injection, schedule: Q01DX009 (ip), vehicle: Klucel (hydroxypropylcellulose) (HPC)
[16] = dose: 60.0 mg/kg/injection, schedule: Q01DX005 (ip), vehicle: saline with Tween-80
[17] = dose: 120.0 mg/kg/injection, schedule: Q01DX005 (ip), vehicle: saline with Tween-80
[18] = dose: 240.0 mg/kg/injection, schedule: Q01DX005 (ip), vehicle: saline with Tween-80
[19] = dose: 12.5 mg/kg/injection, schedule: Q01DX009 (ip), vehicle: saline
[20] = dose: 60.0 mg/kg/injection, schedule: Q01DX005 (ip), vehicle: Klucel (hydroxypropylcellulose) (HPC)
[21] = dose: 120.0 mg/kg/injection, schedule: Q01DX005 (ip), vehicle: Klucel (hydroxypropylcellulose) (HPC)
[22] = dose: 240.0 mg/kg/injection, schedule: Q01DX005 (ip), vehicle: Klucel (hydroxypropylcellulose) (HPC)
[23] = dose: 50.0 mg/kg/injection, schedule: Q01DX009 (ip), vehicle: saline with Tween-80
[24] = dose: 100.0 mg/kg/injection, schedule: Q01DX009 (ip), vehicle: saline with Tween-80
[25] = dose: 200.0 mg/kg/injection, schedule: Q01DX009 (ip), vehicle: saline with Tween-80

CCCCCCOc1ccc(OCCCC[N+]2(CC)CCCCC2)cc1
T/C [1]: 105 % of control | T/C [2]: 106 % of control | T/C [3]: 104 % of control

Cn1cc(O)c(=O)n(C)c1=O
T/C (dose: 100.0 mg/kg/injection, schedule: Q04DX003 (ip), vehicle: saline with Tween-80): 99 % of control | T/C (dose: 200.0 mg/kg/injection, schedule: Q04DX003 (ip), vehicle: saline with Tween-80): 105 % of control | T/C (dose: 400.0 mg/kg/injection, schedule: Q04DX003 (ip), vehicle: saline with Tween-80): 100 % of control

COC(=O)C(Cc1cc(OC)c(OC)c(OC)c1I)C(=O)OC
T/C (dose: 100.0 mg/kg/injection, schedule: Q01DX001 (ip), vehicle: saline with Tween-80): 102 % of control | T/C (dose: 200.0 mg/kg/injection, schedule: Q01DX001 (ip), vehicle: saline with Tween-80): 100 % of control | T/C (dose: 400.0 mg/kg/injection, schedule: Q01DX001 (ip), vehicle: saline with Tween-80): 103 % of control

NNC(=O)c1ccc2ccccc2c1O
T/C [4]: 103 % of control | T/C [5]: 99 % of control | T/C [6]: 101 % of control | T/C [7]: 96 % of control

NNc1ccc(Cl)nn1
T/C (dose: 7.5 mg/kg/injection, schedule: Q01DX005 (ip), vehicle: saline with Tween-80): 101 % of control | T/C (dose: 15.0 mg/kg/injection, schedule: Q01DX005 (ip), vehicle: saline with Tween-80): 99 % of control

CC1CN(C(=O)c2ccccc2)CC/C1=N\O (configuration not stated)
T/C [8]: 97 % of control | T/C [9]: 93 % of control | T/C [10]: 101 % of control

CSc1nc(N)n2ncc(Br)c2n1
T/C (dose: 100.0 mg/kg/injection, schedule: Q04DX002 (ip), vehicle: saline with Tween-80): 92 % of control

COc1ccc(C(O)C2c3cc4c(cc3CCN2C)OCO4)c(CO)c1OC (configuration not stated)
T/C (dose: 25.0 mg/kg/injection, schedule: Q01DX001 (ip), vehicle: saline + alcohol): 88 % of control | T/C (dose: 50.0 mg/kg/injection, schedule: Q01DX001 (ip), vehicle: saline + alcohol): 95 % of control | T/C (dose: 100.0 mg/kg/injection, schedule: Q01DX001 (ip), vehicle: saline + alcohol): 104 % of control

NC(=Nc1ccccc1)NNC=O
T/C [11]: 102 % of control | T/C [12]: 104 % of control | T/C [13]: 100 % of control

CC1(O)C(=O)OC(CO)C1O (configuration not stated)
T/C [8]: 102 % of control | T/C [9]: 102 % of control | T/C [10]: 100 % of control

CCCS(=N)(=O)CCC(N)C(=O)O (configuration not stated)
T/C (dose: 25.0 mg/kg/injection, schedule: Q01DX005 (ip), vehicle: saline): 93 % of control | T/C [11]: 98 % of control | T/C [12]: 107 % of control | T/C [13]: 112 % of control

OC12CC3C4CC(O1)C1C4CC3C12 (configuration not stated)
T/C (dose: 60.0 mg/kg/injection, schedule: Q01DX005 (ip), vehicle: saline): 102 % of control | T/C (dose: 120.0 mg/kg/injection, schedule: Q01DX005 (ip), vehicle: saline): 109 % of control | T/C (dose: 240.0 mg/kg/injection, schedule: Q01DX005 (ip), vehicle: saline): 109 % of control

CC(C)=CBr
T/C [5]: 105 % of control | T/C [6]: 105 % of control | T/C [7]: 110 % of control

COc1cc(CCNC(C)=O)c(NC=O)cc1OC
T/C (dose: 100.0 mg/kg/injection, schedule: Q04DX002 (ip), vehicle: saline): 108 % of control | T/C (dose: 200.0 mg/kg/injection, schedule: Q04DX002 (ip), vehicle: saline): 105 % of control | T/C (dose: 400.0 mg/kg/injection, schedule: Q04DX002 (ip), vehicle: saline): 99 % of control

CC(CO)(CO)N(CCO)CCO
T/C [11]: 101 % of control | T/C [12]: 101 % of control | T/C [13]: 99 % of control

COc1ccc2nc(NC(=O)Nc3ccc(C)c(NC(=O)Nc4nc5ccc(OC)cc5s4)c3)sc2c1
T/C [14]: 92 % of control | T/C [15]: 89 % of control

O=S1CCCS(=O)C1c1ccccc1 (configuration not stated)
T/C [16]: 100 % of control | T/C [17]: 91 % of control | T/C [18]: 97 % of control

COC(=O)C1=C(C(=O)OC)[C]([Hg][CH3])(C(C)=O)N=N1 (configuration not stated)
T/C [1]: 88 % of control | T/C [2]: 88 % of control | T/C [3]: 93 % of control | T/C [19]: 106 % of control

S=C1SCN(CCc2c[nH]c3ccccc23)CN1CCc1c[nH]c2ccccc12
T/C [8]: 92 % of control | T/C [9]: 90 % of control | T/C [10]: 92 % of control

Cc1cc2nc(/N=C/c3nc(O)c(C)[nH]3)[nH]c2cc1C
T/C (dose: 30.0 mg/kg/injection, schedule: Q01DX005 (ip), vehicle: Klucel (hydroxypropylcellulose) (HPC)): 103 % of control | T/C [20]: 98 % of control | T/C [21]: 99 % of control | T/C [22]: 104 % of control

CSc1nnc(CCC(=O)Nc2cc(Cl)ccc2Cl)o1
T/C [16]: 109 % of control | T/C [17]: 100 % of control | T/C [18]: 97 % of control

CC(C)c1ccccc1Oc1ccccc1N=C1CCN(C)C1
T/C [19]: 100 % of control | T/C [4]: 107 % of control | T/C [5]: 100 % of control and 95 % of control

CC1=C(C(N)=O)C(c2ccc(O)cc2)NC(=S)N1 (configuration not stated)
T/C [20]: 101 % of control | T/C [21]: 101 % of control | T/C [22]: 101 % of control

COc1c(OC(C)=O)c(OC(C)=O)cc2c1-c1ccc(SC)c(=O)cc1C(NC(C)=O)CC2 (configuration not stated)
T/C (dose: 1.25 mg/kg/injection, schedule: Q01DX009 (ip), vehicle: Klucel (hydroxypropylcellulose) (HPC)): 118 % of control | T/C (dose: 5.0 mg/kg/injection, schedule: Q01DX009 (ip), vehicle: Klucel (hydroxypropylcellulose) (HPC)): 150 % of control | T/C (dose: 10.0 mg/kg/injection, schedule: Q01DX009 (ip), vehicle: Klucel (hydroxypropylcellulose) (HPC)): 169 % of control and 185 % of control | T/C (dose: 20.0 mg/kg/injection, schedule: Q01DX009 (ip), vehicle: Klucel (hydroxypropylcellulose) (HPC)): 178 % of control

COP(=O)(CC(=O)NCc1cc(C(C)(C)C)c(O)c(C(C)(C)C)c1)OC
T/C [23]: 110 % of control | T/C [24]: 103 % of control | T/C [25]: 100 % of control

N#CC1C(=O)NC(=O)C(C#N)C1c1ccc(Cl)cc1 (configuration not stated)
T/C [14]: 101 % of control | T/C [15]: 100 % of control | T/C (dose: 200.0 mg/kg/injection, schedule: Q01DX009 (ip), vehicle: Klucel (hydroxypropylcellulose) (HPC)): 101 % of control

CCC1(C)NN=C2C(=CC=C3NNC(C)(CC)N32)n2cccc21 (configuration not stated)
T/C [8]: 102 % of control | T/C [9]: 110 % of control | T/C [10]: 119 % of control

O=c1n(-c2ccccc2)c(=O)n2n1C1C=CC2C2C3OC3C21 (configuration not stated)
T/C (dose: 12.5 mg/kg/injection, schedule: Q04DX003 (ip), vehicle: Klucel (hydroxypropylcellulose) (HPC)): 100 % of control | T/C (dose: 25.0 mg/kg/injection, schedule: Q04DX003 (ip), vehicle: Klucel (hydroxypropylcellulose) (HPC)): 101 % of control | T/C (dose: 50.0 mg/kg/injection, schedule: Q04DX003 (ip), vehicle: Klucel (hydroxypropylcellulose) (HPC)): 108 % of control

CC(=O)OCC1OC(Sc2nnc(-c3ccccc3)c(-c3ccccc3)n2)C(OC(C)=O)C(OC(C)=O)C1OC(C)=O (configuration not stated)
T/C [23]: 107 % of control | T/C [24]: 98 % of control | T/C [25]: 100 % of control

CN1C2CCC(=O)C1CC2 (configuration not stated)
T/C (dose: 6.25 mg/kg/injection, schedule: Q01DX005 (ip), vehicle: saline + Tween-80 + alcohol): 100 % of control | T/C (dose: 12.5 mg/kg/injection, schedule: Q01DX005 (ip), vehicle: saline + Tween-80 + alcohol): 100 % of control | T/C (dose: 25.0 mg/kg/injection, schedule: Q01DX005 (ip), vehicle: saline + Tween-80 + alcohol): 99 % of control

Cc1cc(C)cc(C(=O)NC(c2ccncc2)C2N=C(c3ccccc3)OC2=O)c1 (configuration not stated)
T/C [16]: 98 % of control | T/C [17]: 94 % of control | T/C [18]: 94 % of control

O=C(CN1C(=O)c2cccc3c(Br)ccc(c23)C1=O)c1ccc(F)cc1
T/C [8]: 87 % of control | T/C [9]: 103 % of control | T/C [10]: 89 % of control
